How the values were obtained:
Assay type in all cases: in vivo
[1] = system: Beet Armyworm (Spodoptera exigua) ("BAW"); test: Bioassay on beet armyworm (BAW), 128-well diet tray assay; conditions: 168 h, 50 μg/cm^2 on artificial diet, second instar BAW larvae, 25° C., five to seven days, average of eight wells, read-out: BAW % Control (or Mortality) rating
How it was run: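 Second-instar larvae (one to five per well) were placed on artificial diet surface-treated with 50 μg/cm^2 compound applied in 90:10 acetone-water and dried, eight wells per compound. Held at 25° C., 14:10 light-dark for five to seven days; percent mortality was scored per well and averaged over the eight wells.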

[2] = system: Cabbage Looper (Trichoplusia ni) ("CL"); test: Bioassay on cabbage looper (CL), 128-well diet tray assay; conditions: 168 h, 50 μg/cm^2 on artificial diet, second instar CL larvae, 25° C., five to seven days, average of eight wells, read-out: CL % Control (or Mortality) rating
How it was run: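 Second-instar larvae (one to five per well) placed on artificial diet surface-treated with 50 μg/cm^2 compound in 90:10 acetone-water, dried before infestation. Held 25 °C, 14:10 light-dark for five to seven days; percent mortality scored per well and averaged over eight wells.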

[3] = system: Green Peach Aphid ("GPA") (Myzus persicae); test: Bioassay on green peach aphid (GPA), foliar spray on cabbage seedlings; conditions: Myzus persicae, foliar, 72 h; 200 ppm spray on infested cabbage seedlings, three days, Abbott corrected % control; read-out: GPA % Control (or Mortality) rating
Protocol: Certain molecules disclosed in this document were tested against GPA using procedures described in the following example. In the reporting of the results, the “GPA Rating Table” was used (See Table Section).
Cabbage seedlings grown in 3-inch pots, with 2-3 small (3-5 cm) true leaves, were used as test substrate. The seedlings were infested with 20-50 GPA (wingless adult and nymph stages) one day prior to chemical application. Four pots with individual seedlings were used for each treatment. Test compounds (2 mg) were dissolved in 2 mL of acetone/methanol (1:1) solvent, forming stock solutions of 1000 ppm test compound. The stock solutions were diluted 5× with 0.025% Tween 20 in water to obtain the solution at 200 ppm test compound. A hand-held aspirator-type sprayer was used for spraying a solution to both sides of […] leaves until runoff. Reference plants (solvent check) were sprayed with the diluent only containing 20% by volume of acetone/methanol (1:1) solvent. Treated plants were held in a holding room for three days at approximately 25° C. and ambient relative humidity (RH) prior to grading. Evaluation was conducted by counting the number of live aphids per plant under a microscope. Percent Control was measured by using Abbott's correction formula (W. S. Abbott, “A Method of Computing the Effectiveness of an Insecticide” J. Econ. Entomol. 18 (1925), pp. 265-267) as follows. Corrected % Control=100*(X−Y)/X • where • X=No. of live aphids on solvent check plants and • Y=No. of live aphids on treated plants

[4] = system: Yellow Fever Mosquito "YFM" (Aedes aegypti); conditions: about 1 day-old larvae, 96-well plate, room temperature, 3 days, mortality
How it was run: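 About 1 day-old Aedes aegypti larvae in liver-powder water added to wells holding compound diluted from 4000 ppm DMSO stock with 90:10 water:acetone, 6 replicate plates. Plates kept covered at room temperature for 3 days. Wells scored for mortality and reported as rating categories.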

| Compound | mortality at 50 µg/cm2 [1] [%] | mortality at 50 µg/cm2 [2] [%] | mortality at 200 ppm [3] [%] | YFM % Control (or Mortality) rating [4] |
| --- | --- | --- | --- | --- |
| CC(C)c1ccccc1NC(=S)NC(=O)NCCc1ccc(-c2ncn(-c3ccc(OC(F)(F)F)cc3)n2)cc1 [F2, N-[2-isopropylphenyl]-N-[2-(4-{1-[4-(trifluoromethoxy)phenyl]-1H-1,2,4-triazol-3-yl}phenyl)ethyl]dicarbonimidothioic diamide] | 50 to 100 | 50 to 100 | 0 to 80 | A (80-100) |
| Cc1ccc(C(C)C)c(N2C(=O)CS/C2=N\C(=O)NCCc2ccc(-c3ncn(-c4ccc(OC(F)(F)F)cc4)n3)cc2)c1 [F5, (Z)-1-(3-(2-isopropropyl-5-methylphenyl)-4-oxothiazolidin-2-ylidene)-3-(4-(1-(4-(trifluoromethoxy)phenyl)-1H-1,2,4-triazol-3-yl)phenethyl)urea] | 50 to 100 | 50 to 100 | 80 to 100 | A (80-100) |
| COc1ccc(C(C)C)c(N2C(=O)CS/C2=N\C(=O)NCCc2ccc(-c3ncn(-c4ccc(OC(F)(F)F)cc4)n3)cc2)c1 [F6, (Z)-1-(3-(2-isopropyl-5-methoxyphenyl)-4-oxothiazolidin-2-ylidene)-3-(4-(1-(4-(trifluoromethoxy)phenyl)-1H-1,2,4-triazol-3-yl)phenethyl)urea] | 50 to 100 | 50 to 100 | 0 to 80 | A (80-100) |
| CC(Cc1ccc(-c2ncn(-c3ccc(OC(F)(F)F)cc3)n2)cc1)NC(=O)/N=C1\SCC(=O)N1c1ccccc1C(C)C (stereo not shown) [F7, (Z)-1-(3-(2-isopropylphenyl)-4-oxothiazolidin-2-ylidene)-3-(1-(4-(1-(4-(trifluoromethoxy)phenyl)-1H-1,2,4-triazol-3-yl)phenyl)propan-2-yl)urea] | 50 to 100 | 50 to 100 | 0 to 80 | A (80-100) |
| CCc1cccc(C)c1N1C(=O)CS/C1=N\C(=O)NC1CC1c1ccc(-c2ncn(-c3ccc(OC(F)(F)F)cc3)n2)cc1 (stereo not shown) [F31, (Z)-1-(3-(2-ethyl-6-methylphenyl)-4-oxothiazolidin-2-ylidene)-3-(2-(4-(1-(4-(trifluoromethoxy)phenyl)-1H-1,2,4-triazol-3-yl)phenyl)cyclopropyl)urea] | 50 to 100 | 50 to 100 | 0 |  |
| Cc1cccc(C)c1N1C(=O)CS/C1=N\C(=O)NC1CC1c1ccc(-c2ncn(-c3ccc(OC(F)(F)F)cc3)n2)cc1 (stereo not shown) [F32, (Z)-1-(3-(2,6-dimethylphenyl)-4-oxothiazolidin-2-ylidene)-3-(2-(4-(1-(4-(trifluoromethoxy)phenyl)-1H-1,2,4-triazol-3-yl)phenyl)cyclopropyl)urea] | 50 to 100 | 50 to 100 | 0 |  |
| CCc1ccc(C)cc1N1C(=O)CS/C1=N\C(=O)NC1CC1c1ccc(-c2ncn(-c3ccc(OC(F)(F)F)cc3)n2)cc1 (stereo not shown) [F33, (Z)-1-(3-(2-ethyl-5-methylphenyl)-4-oxothiazolidin-2-ylidene)-3-(2-(4-(1-(4-(trifluoromethoxy)phenyl)-1H-1,2,4-triazol-3-yl)phenyl)cyclopropyl)urea] | 50 to 100 | 50 to 100 | 0 |  |
| Cc1ccc(C(C)C)c(N2CCS/C2=N\C(=O)NC2CC2c2ccc(-c3ncn(-c4ccc(OC(F)(F)F)cc4)n3)cc2)c1 (stereo not shown) [F34, (Z)-1-(3-(2-isopropyl-5-methylphenyl)thiazolidin-2-ylidene)-3-(2-(4-(1-(4-(trifluoromethoxy)-phenyl)-1H-1,2,4-triazol-3-yl)phenyl)cyclopropyl)urea] | 50 to 100 | 50 to 100 | 0 |  |

— US9783532B2, “Molecules having certain pesticidal utilities, and intermediates, compositions, and processes related thereto” (Dow AgroSciences LLC, priority 2013, dated 2017)
